Laboratory results taken from patent publication US12042530B2, “Target peptides for immunotherapy and diagnostics” (University of Virginia Patent Foundation, priority 2012, dated 2024).
Read-outs that look alike come from different tables or passages of the source. Each block holds one compound with its values, some of them ahead of it. Non-standard residues stand in square brackets, D forms with d. No end group written: not given here. pS = N[C@@H](COP(=O)(O)O)C(=O)O

How the values were obtained:
[1] = test system: melanoma cells; assay: T cell recognition of GSK-3β- and proteasome-inhibited melanoma cells; type: cell-based, human; conditions: DM331 and SLM2, re-expression of peptide-MHC in presence of inhibitor (5 μM)
Description: Surface peptide-MHC complexes were denatured from the cells using a mild acid buffer as previously described (Robila et al., 2008) and then allowed to re-express peptide-MHC molecules in the presence of BIO, MeBIO, or 5 μM lactacystin for 12 hours. T cell recognition of the cells was evaluated after 5 hours incubation with pS33-βcat-specific T cells.

[2] = test system: phosphoS33-β-catenin; assay: Western blot of phosphoS33-β-catenin and β-catenin; type: cell-based, human; conditions: BIO in the presence of lactacystin
Description: Lysates were prepared from ˜80% confluent cells in buffer containing 2% Triton X 100 and protease and phosphatase inhibitors. Samples were separated on 8% SDS-PAGE (Thermo Fischer Scientific Inc., Waltham, Massachusetts, United States of America) and transferred to PVDF membranes (Millipore Immobilon-FL, 0.45 μm; Millipore Corporation, Billerica, Massachusetts, United States of America). Blots were probed with phosphoS33-β-catenin, β-catenin, and GAPDH antibodies overnight at 4° C. and developed by enhanced chemiluminescence (Millipore). Films were scanned and integrated density values determined using AlphaEase software and normalized to values obtained for GAPDH. In some cases, GSK-3 activity was inhibited using 5 μg BIO ((2′Z, 3′E)-6-Bromoindirubin-3′-oxime) and proteasomal degradation was blocked with 10 μg lactacystin (Calbiochem) before cells were lysed.

[3] = test system: PBMCs; assay: 7-day recall ELISpot, AML patients, before and after stem cell transplantation; type: cell-based, human
Description: To develop a more complete understanding of phosphoantigen-directed T cell immunity in patients with leukemia, these studies were extended into AML using a panel of 14 AML-specific phosphopeptide antigens. A cohort of 12 patients in complete remission (CR) with AML (see Table 24) were assessed using 7-day recall responses, as measured by ELISpot, and compared against a cohort of 12 healthy donors (see FIGS. 14A and 16).
To test this hypothesis, all 12 AML patients underwent allogeneic SCT and immune reconstitution against 14 AML-specific phosphopeptide antigens was monitored. […] For some patients, immune reconstitution was studied in more detail. For patient AML8 marked expansions of 6 different phosphopeptide immune responses were observed (see FIG. 14E).
For ELISpot analysis, PBMCs and CD8^+ T cells were isolated fresh from healthy donors and patients. 1×10^6 PBMCs were isolated from both AML patients and healthy donors and resuspended in AIM-V media (10% human AB serum) in a 96 well plate. Peptide or phosphopeptides were added individually at 10 μg/ml and placed at 37° C. in CO2 incubator for 7 days. Cells were then harvested, washed 4 times, and re-challenged with phosphopeptides, peptides, or anti-CD3 (OKT3, 100 ng/ml, Mabtech, Inc., Mariemont, Ohio, United States of America) as per the manufacturer's instructions. […]

[4] = test system: cancer cell lines; assay: Recognition of naturally processed phosphopeptides on cancer cell lines by phosphopeptide-specific CTL (murine IFNγ); type: cell-based, human; conditions: ovarian, melanoma and breast cancer lines versus JY EBV-BLCL control
Description: FIGS. 9A and 9B are bar graphs of the recognition of naturally processed and presented phosphorylated peptides on cancer cells by the phosphopeptide-specific CTL. Phosphopeptide-specific CTL were incubated with the following cancer cell lines or EBV-transformed B lymphoblastoid cell lines (BLCL): COV413.AAD.A4 ovarian carcinoma, DM331.AAD.A4 and SLM2.AAD.A1 melanomas, MCF7.AAD.A2 and MDAMB231.AAD breast carcinomas, and JY EBV-BLCL. Supernatants were harvested and evaluated for the presence of murine IFNγ (produced by murine CTL lines). […] The designation “pS” denotes a phosphoserine residue. The ordinate indicates murine IFNγ in pg/ml. The abscissa indicates each cell line.

[5] = test system: PBMCs; assay: Memory T cell response, IFNγ ELISpot, healthy A2 positive donors; type: cell-based, human; conditions: for Day 7 ELISpot, donor alpha: healthy A2 positive donor alpha; for Day 7 ELISpot, donor one: healthy A2 positive donor one
[6] = test system: CD8+ T cells; assay: ELISpot T cell recognition assay, healthy donors, leukemia-associated phosphopeptides; type: cell-based, human; conditions: 10 HLA-A2+ and 10 HLA-B7+ healthy individuals, 7 day cultures
Description: Immunity against 76 HLA-B7 and 10 HLA-A2 leukemia-associated phosphopeptide antigens was assessed in 10 HLA-A2^+ and 10 HLA-B7^+ healthy individuals (see FIG. 12A).
For ELISpot analysis, PBMCs and CD8^+ T cells were isolated fresh from healthy donors and patients. 1×10^6 PBMCs were isolated from both AML patients and healthy donors and resuspended in AIM-V media (10% human AB serum) in a 96 well plate. Peptide or phosphopeptides were added individually at 10 μg/ml and placed at 37° C. in CO2 incubator for 7 days. Cells were then harvested, washed 4 times, and re-challenged with phosphopeptides, peptides, or anti-CD3 (OKT3, 100 ng/ml, Mabtech, Inc., Mariemont, Ohio, United States of America) as per the manufacturer's instructions. Individual cytokine-producing cells were identified as dark spots after a 15 minute reaction with 5-bromo-4-chloro-3-indolyl phosphate and NBT by means of an alkaline phosphatase conjugate substrate (Mabtech).

[7] = test system: RQA(pS)IELPSMAV-specific T cells; assay: Recognition of peptide-loaded targets by RQA(pS)[…]-specific T cells (IFNγ); type: cell-based, human
Text: Three of the HLA-A2 and two HLA-B7 phosphopeptides were derived from LSP-1, a protein previously identified as a potential tumor marker. One of these, RQA(pS)[…] (SEQ ID NO: 452), was selected for initial immunological studies due to its widespread expression on all HLA-A2^+ tumor samples analyzed and also because it was present on tumor samples at high copy number. Monocyte-derived dendritic cells were generated from healthy donors and used to prime autologous T cells and HLA-phosphopeptide tetramers were used to enrich phosphopeptide-specific T cells, between each stimulation steps, to produce a monospecific T cell line (see FIG. 11A). […] Recognition was, therefore, phosphate-dependent and phosphopeptide-specific.
HLA-A2 restricted RQA-V (SEQ ID NO: 2375) phosphopeptide-specific cytotoxic CD8^+ T cells were generated from healthy donors as described previously in Ho et al., 2006. Briefly, PBMCs were cultured in flat-bottom 6-well plates at 10^7 cells per well in RPMI 1640 plus 10% heat-inactivated human AB serum (10% media). GM-CSF (800 IU/mL), and IL-4 (1000 units/mL; PeproTech) were added on day 0 to generate dendritic cells (DC). On day 1, a maturation cocktail was added containing 100 ng/ml TNFα, 100 ng/ml IL-1β, 10,000 IU/ml IL-6, 8,000 IU/ml GM-CSF, and 10 μg/ml PGE2. […]

[8] = target: HLA A*0201 (Homo sapiens, UniProt P04439, D140Y/D185E/D98H/E176V/E277Q/G131W/G231S/I119V/I121R/I166T/I218V/L300P/L318F/N151K/N90K/P208A/P217A/Q86G/Q94H/R138H/R169H/T345S); assay: Binding to HLA A*0201 (statement)
[9] = target: HLA A*0301 (Homo sapiens, UniProt P04439); assay: Binding to HLA A*0301 (statement)

Compound: CC(=O)NC(CSC(=O)C1(C(O)C(C)C)NC(=O)C(C)C1O)C(=O)O (stereo not shown) [lactacystin, 2-(acetylamino)-3-[({3-hydroxy-2-[1-hydroxy-2-methylpropyl]-4-methyl-5-oxopyrrolidin-2-yl}carbonyl)sulfanyl]propanoic acid]
pS33-βcat-specific T cell recognition of melanoma cells [1]: abolished
Amount of phosphoS33-β-catenin in melanoma cells [2]: substantial increase

Compound: EPRsPSHSM (EPR[pS]PSHSM; listed as Homo sapiens) [SEQ ID NO: 270]
Immune reconstitution after allogeneic stem cell transplantation [3]: dramatic expansion

Compound: GLLGpSPVRA (GLLG[pS]PVRA; listed as Homo sapiens) [SEQ ID NO: 396]
Recognition of the endogenous phosphopeptide by specific CTL lines [4]: recognized the phosphopeptide on all the cancer cell lines but not the control cell line
Day 7 ELISpot, donor alpha [5]: + (3-24 spots)
Day 7 ELISpot, donor one [5]: + (3-24 spots)

Compound: QPRtPSPLVL [SEQ ID NO: 304]
Immune reconstitution after allogeneic stem cell transplantation [3]: dramatic expansion
Immune response in healthy donors, in words [6]: some of the strongest responses

Compound: RQA(pS)IELPSMAV (RQA[pS]IELPSMAV; listed as Homo sapiens) [SEQ ID NO: 452]
IFNγ production by RQA(pS)IELPSMAV-specific T cells in response to the peptide [7]: produced IFNγ
Immune response in healthy donors, in words [6]: some of the strongest responses

Compound: RQASIELPSMAV [reference compound]
IFNγ production by RQA(pS)IELPSMAV-specific T cells in response to the peptide [7]: not to the unphosphorylated RQASIELPSMAV

Binding to HLA A*0201 [8]: binds to HLA A*0201
Binding to HLA A*0201 ([8]; listed as RVA): did not bind to A*0201
Binding to / presentation by HLA A*0301 ([9]; listed as RVA): binds to A*0301
Compound: RVApSPTSGV (RVA[pS]PTSGV; listed as Homo sapiens) [SEQ ID NO: 418]
Recognition of the endogenous phosphopeptide by specific CTL lines [4]: recognized the phosphopeptide on all the cancer cell lines but not the control cell line
Day 7 ELISpot, donor alpha [5]: ++ (25-99 spots)
Day 7 ELISpot, donor one [5]: ++ (25-99 spots)
Memory T cell response, in words ([5]; healthy donors / patient): None of the HD recognized or responded to it
Binding to / presentation by HLA A*0301 [9]: cannot be presented by the A*0301 molecule
